Results: US10131652B2, “Pyrimidinyloxy benzene derivatives as herbicides” (E. I. DU PONT DE NEMOURS AND COMPANY, priority 2014, dated 2018)
Read-outs that look alike come from different tables or passages of the source.

Assays:
Format in all cases: in vivo
[1] = system: barnyardgrass (Echinochloa crus-galli); experiment: Test B pre-/postemergence plant response; conditions: Echinochloa crus-galli, 240 h, 1000 g ai/ha, 0 to 100 scale (0 no effect, 100 complete control), read-out: Plant response rating, Barnyardgrass
Method in brief: (§1)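 Visual injury scores on a 0–100 scale (100 = complete control) relative to untreated plants, taken about 10 days post-treatment in greenhouse. Treatments were a directed preemergence soil spray and a postemergence spray at one- to two-leaf stage, using surfactant-containing solvent formulation.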

[2] = system: corn (Zea mays); experiment: Test B pre-/postemergence plant response; conditions: Zea mays, post-emergence, 240 h; Postemergence, 1000 g ai/ha; 0 to 100 scale (0 no effect, 100 complete control)
Method in brief: as §1

[3] = system: giant foxtail (Setaria faberii); experiment: Test B pre-/postemergence plant response; conditions: Setaria faberi, 240 h, 1000 g ai/ha, 0 to 100 scale (0 no effect, 100 complete control), read-out: Plant response rating, Foxtail, Giant
Method in brief: as §1

[4] = system: pigweed (Amaranthus retroflexus); experiment: Test B pre-/postemergence plant response; conditions: Amaranthus retroflexus, 240 h, 1000 g ai/ha, 0 to 100 scale (0 no effect, 100 complete control), read-out: Plant response rating, Pigweed
Method in brief: as §1

[5] = system: wheat (Triticum aestivum); experiment: Test B pre-/postemergence plant response; conditions: Triticum aestivum, post-emergence, 240 h; Postemergence, 1000 g ai/ha; 0 to 100 scale (0 no effect, 100 complete control); read-out: Plant response rating, Wheat
Method in brief: as §1

[6] = system: Italian ryegrass (Lolium multiflorum); experiment: Test D pre-/postemergence plant response; conditions: Lolium multiflorum; for pest or weed control at 16 g/ha: 16 g ai/ha; for pest or weed control at 31 g/ha: 31 g ai/ha; for pest or weed control at 62 g/ha: 62 g ai/ha; for pest or weed control at 125 g/ha: 125 g ai/ha
Method in brief: (§2)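 Ratings were visual, 0 = no effect to 100 = complete control, taken against untreated controls after 13 to 15 days in a greenhouse. Chemicals, formulated in non-phytotoxic surfactant-containing solvent, went onto soil (loam/sand) at planting for preemergence, or onto 1- to 4-leaf plants (2–18 cm) for postemergence.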

[7] = system: barnyardgrass (Echinochloa crus-galli); experiment: Test D pre-/postemergence plant response; conditions: Echinochloa crus-galli; for pest or weed control at 16 g/ha: 16 g ai/ha; for pest or weed control at 16 g/ha / pest or weed control at 31 g/ha: scale 0 to 100 (0 no effect, 100 complete control); for pest or weed control at 31 g/ha: 31 g ai/ha; for pest or weed control at 62 g/ha: 62 g ai/ha; for pest or weed control at 125 g/ha: 125 g ai/ha
Method in brief: as §2

[8] = system: blackgrass (Alopecurus myosuroides); experiment: Test D pre-/postemergence plant response; conditions: Alopecurus myosuroides; for pest or weed control at 16 g/ha: 16 g ai/ha; for pest or weed control at 31 g/ha: 31 g ai/ha; for pest or weed control at 62 g/ha: 62 g ai/ha; for pest or weed control at 125 g/ha: 125 g ai/ha
Method in brief: as §2

[9] = system: corn (Zea mays); experiment: Test D pre-/postemergence plant response; conditions: Zea mays; for Corn plant response rating (crop injury, 0 = no effect, 100 = complete kill) at 62 g/ha: 62 g ai/ha
Method in brief: as §2

[10] = system: galium (catchweed bedstraw, Galium aparine); experiment: Test D pre-/postemergence plant response; conditions: Galium; for pest or weed control at 16 g/ha: 16 g ai/ha; for pest or weed control at 31 g/ha: 31 g ai/ha; for pest or weed control at 62 g/ha: 62 g ai/ha; for pest or weed control at 125 g/ha: 125 g ai/ha
Method in brief: as §2

[11] = post-emergence, Postemergence, scale 0 to 100 (0 no effect, 100 complete control), read-out: Ryegrass, Italian plant response rating
[12] = post-emergence, Postemergence, scale 0 to 100, 0 no effect, 100 complete control, read-out: Plant response rating, Ryegrass, Italian
[13] = pre-emergence, Preemergence, scale 0 to 100 (0 no effect, 100 complete control), read-out: Plant response rating, Ryegrass, Italian
[14] = post-emergence, Postemergence, read-out: Barnyardgrass plant response rating
[15] = post-emergence, Postemergence, scale 0 to 100, 0 no effect, 100 complete control, read-out: Plant response rating, Barnyardgrass
[16] = pre-emergence, Preemergence, read-out: Plant response rating (scale 0 to 100), Barnyardgrass
[17] = pre-emergence, Preemergence, read-out: Plant response rating, Barnyardgrass
[18] = post-emergence, Postemergence, scale 0 to 100 (0 no effect, 100 complete control), read-out: Blackgrass plant response rating
[19] = post-emergence, Postemergence, scale 0 to 100, 0 no effect, 100 complete control, read-out: Plant response rating, Blackgrass
[20] = pre-emergence, Preemergence, scale 0 to 100 (0 no effect, 100 complete control), read-out: Plant response rating, Blackgrass
[21] = post-emergence, Postemergence, scale 0 to 100 (0 no effect, 100 complete control), read-out: Galium plant response rating
[22] = post-emergence, Postemergence, scale 0 to 100, 0 no effect, 100 complete control, read-out: Plant response rating, Galium
[23] = pre-emergence, Preemergence, scale 0 to 100 (0 no effect, 100 complete control), read-out: Plant response rating, Galium

Fc1cccc(Oc2ncc(Cl)cn2)c1-c1cc(C(F)F)on1 [Compound 55, 5-chloro-2-[2-[5-(difluoromethyl)-3-isoxazolyl]-3-fluorophenoxy]pyrimidine]
20%: Corn plant response rating (crop injury, 0 = no effect, 100 = complete kill) at 125 g/ha ([9]; post-emergence, Postemergence, 125 g ai/ha, scale 0 to 100, 0 no effect, 100 complete control) | Corn plant response rating (crop injury, 0 = no effect, 100 = complete kill) at 31 g/ha ([9]; pre-emergence, Preemergence, 31 g ai/ha, scale 0 to 100 (0 no effect, 100 complete control))
95%: pest or weed control at 125 g/ha ([6]; pre-emergence, Preemergence, read-out: Plant response rating (scale 0 to 100), Ryegrass, Italian)
30%: pest or weed control at 62 g/ha [8, 19]
100%: pest or weed control at 1000 g/ha ([1]; post-emergence, Postemergence) | pest or weed control at 1000 g/ha ([1]; pre-emergence, Preemergence) | Corn plant response rating (crop injury, 0 = no effect, 100 = complete kill) at 1000 g/ha [2] | pest or weed control at 1000 g/ha ([3]; post-emergence, Postemergence) | pest or weed control at 1000 g/ha ([3]; pre-emergence, Preemergence) | pest or weed control at 1000 g/ha ([4]; post-emergence, Postemergence) | pest or weed control at 1000 g/ha ([4]; pre-emergence, Preemergence) | plant injury at 1000 g/ha [5] | pest or weed control at 62 g/ha [7, 16] | pest or weed control at 125 g/ha [7, 16] | pest or weed control at 125 g/ha ([10]; pre-emergence, Preemergence, read-out: Plant response rating (scale 0 to 100), Galium) | pest or weed control at 16 g/ha [10, 23] | pest or weed control at 31 g/ha [10, 23] | pest or weed control at 62 g/ha [10, 23]
5%: pest or weed control at 31 g/ha [6, 11] | pest or weed control at 16 g/ha [7, 14] | pest or weed control at 16 g/ha [8, 18] | Corn plant response rating (crop injury, 0 = no effect, 100 = complete kill) at 16 g/ha ([9]; pre-emergence, Preemergence, 16 g ai/ha, scale 0 to 100 (0 no effect, 100 complete control))
85%: pest or weed control at 62 g/ha [6, 13] | pest or weed control at 31 g/ha [7, 17]
25%: pest or weed control at 16 g/ha [7, 17]
0%: pest or weed control at 16 g/ha [6, 11]
10%: pest or weed control at 62 g/ha [6, 12] | pest or weed control at 31 g/ha [7, 14] | pest or weed control at 31 g/ha [8, 18] | plant injury at 16 g/ha ([9]; post-emergence, Postemergence, 16 g ai/ha, scale 0 to 100 (0 no effect, 100 complete control), read-out: Corn plant response rating) | plant injury at 31 g/ha ([9]; post-emergence, Postemergence, 31 g ai/ha, scale 0 to 100 (0 no effect, 100 complete control), read-out: Corn plant response rating) | Corn plant response rating (crop injury, 0 = no effect, 100 = complete kill) at 62 g/ha ([9]; post-emergence, Postemergence, scale 0 to 100, 0 no effect, 100 complete control)
50%: pest or weed control at 125 g/ha [8, 19]
15%: pest or weed control at 125 g/ha [6, 12] | pest or weed control at 16 g/ha [6, 13] | pest or weed control at 62 g/ha [7, 15] | pest or weed control at 125 g/ha [7, 15] | pest or weed control at 16 g/ha [8, 20]
35%: pest or weed control at 31 g/ha [6, 13] | Corn plant response rating (crop injury, 0 = no effect, 100 = complete kill) at 62 g/ha ([9]; pre-emergence, Preemergence, scale 0 to 100 (0 no effect, 100 complete control))
90%: pest or weed control at 125 g/ha ([8]; pre-emergence, Preemergence, read-out: Plant response rating (scale 0 to 100), Blackgrass) | pest or weed control at 31 g/ha [8, 20] | pest or weed control at 62 g/ha [8, 20] | pest or weed control at 31 g/ha [10, 21] | pest or weed control at 62 g/ha [10, 22] | pest or weed control at 125 g/ha [10, 22]
80%: plant injury at 125 g/ha ([9]; pre-emergence, Preemergence, 125 g ai/ha, read-out: Plant response rating (scale 0 to 100), Corn) | pest or weed control at 16 g/ha [10, 21]
